{"source": "patent US12000833B2", "about": "“Marker for predicting the sensitivity to PI3K inhibitors” (INSERM (INSTITUT NATIONAL DE LA SANTE ET DE LA RECHERCHE …, priority 2017, dated 2024)", "key": {"phosphorylation of Akt [1]": {"test_system": "phosphorylation of Akt", "assay": "RTK-driven (EGF) or GPCR-driven (LPA) short-term phosphorylation of Akt", "type": "cell-based, human", "details": "data not shown", "from_the_text": "(§1) In pancreatic cancer, PI3K signalling is associated with a poor prognosis. […] However, this was not always coupled to a significant increase in the phosphorylation levels of canonical targets, pPRAS40 or pS6K, in all patients (data not shown), emphasizing the importance of other signalling targets downstream PI3Ks. Long-term inhibition of a core signal node is believed to induce an adaptive modification of the entire signal network. We tested if long-term inhibition of each PI3K isoforms induces a differential change in pancreatic cancer cell adaptation. To answer this question, we devise a strategy to globally identify this adaptive response focusing on phospho-site regulated signalling pathways (data not shown). […] Serum, which consist of a combination of RTK and GPCR stimuli mimicking physiopathological signalling, induces after 10 min a significant activation of class I PI3Ks as assessed by the phosphorylation of Akt and known downstream effectors PRAS40, S6K, S6 (data not shown). […] We thus chose these stimulation conditions to identify differential phosphoproteome across time in response to three PI3K iso form-selective drugs after SILAC metabolic labelling and enrichment in trypsine-based phosphopeptides by TiO2 beads allowing a robust S/T/Y phosphorylation quantification of thousands of proteins."}, "phosphorylation of Akt [2]": {"test_system": "phosphorylation of Akt", "assay": "Serum (FBS)-stimulated phosphorylation of Akt and downstream effectors in Capan-1 cells", "type": "cell-based, human", "details": "Capan-1, after 10 min stimulation with serum", "procedure": "Light amino acid-labelled and heavy amino acid-labelled Capan-1 cells (respectively called thereafter “light” and “heavy” cells) were washed twice with phosphate buffer saline (PBS; SIGMA; D8537), trypsined (GE Healthcare; L11-002) and plated at a concentration of 2.5.10^6 cells in a 14.4 cm-diameter dish (Dutscher, 055063). After 48 h, cells were serum-starved during 16 h, over-night. Light and heavy cells were pre-treated respectively with inhibitors or their accordingly diluted vehicule (DMSO) (for drug description and used concentration) during 1 h, then stimulated or not for 10 min or 24 h with 2% dialysed FBS. After 10 min and 24 h of FBS stimulation, heavy cells and light cells were maintained on ice, washed three times with cold PBS and lysed.\nas §1"}, "[3]": {"test_system": "metastatic pancreatic cancer", "details": "cited from earlier work"}, "[4]": {"details": "monotherapy, gemcitabine-resistant metastatic pancreatic cancer patient"}}, "data": [{"smiles": "Cc1nc(NC(=O)N2CCC[C@H]2C(N)=O)sc1-c1csc(C(C)(C)C)n1", "note": "[A66]", "values": [{"measurement": "RTK-driven (EGF) short-term phosphorylation of Akt", "setting": "phosphorylation of Akt [1]; EGF stimulation", "value": "inhibited"}, {"measurement": "pS473 and pT308Akt levels", "setting": "phosphorylation of Akt [2]", "value": "significantly inhibited"}]}, {"smiles": "O=C1NC(=O)/C(=C/c2ccc(-c3ccc(F)cc3O)o2)S1", "note": "[AS-252424]", "values": [{"measurement": "GPCR-driven (LPA) short-term phosphorylation of Akt", "setting": "phosphorylation of Akt [1]; LPA stimulation", "value": "inhibited"}, {"measurement": "pS473 and pT308Akt levels", "setting": "phosphorylation of Akt [2]", "value": "significantly inhibited"}]}, {"smiles": "CO[C@H]1C[C@@H]2CC[C@@H](C)[C@@](O)(O2)C(=O)C(=O)N2CCCC[C@H]2C(=O)O[C@H]([C@H](C)C[C@@H]2CC[C@@H](OCCO)[C@H](OC)C2)CC(=O)[C@H](C)/C=C(\\C)[C@@H](O)[C@@H](OC)C(=O)[C@H](C)C[C@H](C)/C=C/C=C/C=C/1C", "note": "[RAD001]", "values": [{"measurement": "clinical action", "setting": "[3]; [4]", "value": "only a minimal clinical action"}, {"measurement": "tolerability", "setting": "[3]; [4]", "value": "well tolerated"}]}, {"smiles": "Cc1cc(C(C)Nc2ccccc2)c2nc(N3CCOCC3)cc(=O)n2c1", "note": "(centres unmarked) [TGX-221]", "values": [{"measurement": "pS473 and pT308Akt levels", "setting": "phosphorylation of Akt [2]", "value": "significantly inhibited"}]}, {"smiles": "Nc1ccn([C@@H]2O[C@H](CO)[C@@H](O)C2(F)F)c(=O)n1", "note": "[gemcitabine]", "values": [{"measurement": "patient survival", "setting": "[3]; standard of line chemotherapy, pancreatic cancer patients", "value": "increases their survival of only a few weeks"}]}]}
